The source of these data is patent US5576335A, “Urea derivatives and their use as ACAT inhibitors” (Nisshin Flour Milling Co., Ltd., priority 1994, dated 1996).

One assay concerns ACAT. In words: ACAT inhibitory activity (labelled cholesteryl ester formation from [1-14C]oleoyl-CoA, liver microsome fractions). It is filed as biochemical. Particulars: compound at 10^-7 M; rabbit liver microsomes; percent inhibition of formation of labelled cholesteryl esters. The protocol:
1. ACAT inhibitory activity
The enzyme preparation, ACAT was prepared from liver microsome fractions of male rabbits according to the method of E. E. Largis et al. (Journal of Lipid Research, Vol. 30, pages 681-690, 1989). The activity was calculated by assaying the amount of the labelled cholesteryl esters formed from [1-^14 C]oleoyl-CoA and endogenous cholesterol according to the method of Kazuichi NATORI et al. (Japan J. Pharmacol., Vol. 42, pages 517-523, 1986).
The result is shown in Table 1, in which percent inhibition of the formation of the labelled cholesteryl esters with a compound added at 10^-7 M is indicated as index for the ACAT inhibitory activity.

A further assay deals with Human LDL. In words: Antioxidative activity (inhibition of MDA formation in cupric sulfate-induced peroxidation of LDL). Particulars: compound 10^-5 M, cupric sulfate 5×10^-6 M, 5 hrs, percent inhibition of MDA formation vs control. It is filed as biochemical. The protocol:
2. Antioxidative activity
Human LDL was incubated in the presence of cupric sulfate (5×10^-6 M) and in the presence or absence of a compound (10^-5 M) for 5 hrs. After the incubation, the peroxidation of low-density lipoproteins (LDL) is evaluated by the formation of malondialdehyde (MDA), which is a sort of lipid peroxides according to the method of Simon J. T. Mao et al. (J. Med. Chem., Vol. 34, pages 298-302, 1991). Activity of the compound is shown by percent inhibition of the MDA formation as compared with control.

Turning to `CCCCCCCNC(=O)Nc1ccccc1NC(=O)c1cc(C(C)(C)C)c(O)c(C(C)(C)C)c1` [Example 6, N-[2-(3-heptylureido)phenyl]-3,5-di-t-butyl-4-hydroxybenzamide], in the assay with ACAT, the “ACAT Inhibition (%)” value worked out at 79%. In the assay with Human LDL, the “Antioxidant Activity (%)” value is 82%.

For `CC(C)(C)c1cc(C(=O)Nc2ccccc2NC(=O)NCC(c2ccccc2)c2ccccc2)cc(C(C)(C)C)c1O` [Example 7, N-[2-(3-(2,2-diphenylethyl)ureido]phenyl]-3,5-di-t-butyl-4-hydroxybenzamide], in the assay on ACAT, the “ACAT Inhibition (%)” value is 86%. Also, in the assay with Human LDL, the “Antioxidant Activity (%)” value came to 75%.

On to `CC(C)(C)c1cc(C(=O)Nc2ccccc2NC(=O)N(Cc2ccccc2)Cc2ccccc2)cc(C(C)(C)C)c1O` [Example 8, N-[2-(3,3-dibenzylureido)phenyl]-3,5-di-t-butyl-4-hydroxybenzamide], for which the “ACAT Inhibition (%)” value with ACAT was found to be 85%. Moreover, the “Antioxidant Activity (%)” value with Human LDL is 83%.

Regarding `CC(C)(C)c1cc(C(=O)Nc2ccccc2NC(=O)NC23CC4CC(CC(C4)C2)C3)cc(C(C)(C)C)c1O` [Example 11, N-[2-(3-adamantyl)ureido]phenyl-3,5-di-t-butyl-4-hydroxybenzamide], in the assay with ACAT, the “ACAT Inhibition (%)” value amounted to 73%.

With `CC(C)(C)c1cc(C(=O)Nc2ccccc2NC(=O)N(Cc2ccccc2)Cc2ccccn2)cc(C(C)(C)C)c1O` [Example 12, N-[2-[3-benzyl-3-(2-pyridylmethyl)ureido]phenyl]-3,5-di-t-butyl-4-hydroxybenzamide], the “ACAT Inhibition (%)” value with ACAT worked out at 79%.

Take `CCCCCCCN(C)C(=O)Nc1ccccc1NC(=O)c1cc(C(C)(C)C)c(O)c(C(C)(C)C)c1` [Example 13, N-[2-(3-heptyl-3-methyl)ureido]phenyl-3,5-di-t-butyl-4-hydroxybenzamide]: the “ACAT Inhibition (%)” value in the assay on ACAT came to 88%.

As for `CCCCCCCNC(=O)Nc1ccccc1NCc1cc(C(C)(C)C)c(O)c(C(C)(C)C)c1` [Example 14], the “ACAT Inhibition (%)” value with ACAT is listed as 81%. Besides, in the assay on Human LDL, the “Antioxidant Activity (%)” value turned out to be 96%.

On to `COc1ccc(NC(=O)N(Cc2ccccc2)Cc2ccccc2)c(NC(=O)c2cc(C(C)(C)C)c(O)c(C(C)(C)C)c2)c1` [Example 20, N-[2-(3,3-dibenzylureido)-5-methoxyphenyl]-3,5-di-t-butyl-4-hydroxybenzamide], for which the “ACAT Inhibition (%)” value in the assay on ACAT was 99%.

Regarding `CCCCCCCN(C)C(=O)Nc1ccc(OC)cc1NC(=O)c1cc(C(C)(C)C)c(O)c(C(C)(C)C)c1` [Example 21, N-[2-(3-heptyl-3-methylureido)-5-methoxyphenyl]-3,5-di-t-butyl-4-hydroxybenzamide], the “ACAT Inhibition (%)” value in the assay with ACAT stood at 93%.

As for `CCCCCCCNC(=O)Nc1ccc(F)cc1NC(=O)c1cc(C(C)(C)C)c(O)c(C(C)(C)C)c1` [Example 30, N-[5-fluoro-2-(3-heptylureido)phenyl]-3,5-di-t-butyl-4-hydroxybenzamide], the “ACAT Inhibition (%)” value in the assay on ACAT is listed as 78%. Further, the “Antioxidant Activity (%)” value in the assay with Human LDL is on record as 79%.

As for `CCCCCCCN(C)C(=O)Nc1ccc(F)cc1NC(=O)c1cc(C(C)(C)C)c(O)c(C(C)(C)C)c1` [Example 32, N-[5-fluoro-2-(3-heptyl-3-methylureido)phenyl]-3,5-di-t-butyl-4-hydroxybenzamide], the “ACAT Inhibition (%)” value in the assay with ACAT was 95%.

As to `CCCCCCCN(C)C(=O)Nc1cc(Cl)c(Cl)cc1NC(=O)c1cc(C(C)(C)C)c(O)c(C(C)(C)C)c1` [Example 35, N-[4,5-dichloro-2-(3-heptyl-3-methylureido)phenyl]-3,5-di-t-butyl-4-hydroxybenzamide], the “ACAT Inhibition (%)” value in the assay with ACAT stood at 71%.

Turning to `CCCCCCCNC(=O)Nc1cc(OC)ccc1NC(=O)c1cc(C(C)(C)C)c(O)c(C(C)(C)C)c1` [Example 36, N-[2-(3-heptylureido)-4-methoxyphenyl]-3,5-di-t-butyl-4-hydroxybenzamide], the “ACAT Inhibition (%)” value in the assay on ACAT was 77%. The “Antioxidant Activity (%)” value with Human LDL stood at 92%.
